PubChem BioAssay AID248 (DTP/NCI, 2004)
Toxic doses and inconclusive results are not listed. No stated cut-off is given here; in the data, active means T/C of 150% or more; inactive means T/C below 125%.

Tested on: L1210 leukemia ip in BDF1 mice, survival T/C
Assay: NCI In Vivo Anticancer Drug Screen. Data for tumor model L1210 Leukemia (intraperitoneal) in B6D2F1 (BDF1) mice
Conditions: endpoint: mean survival time, higher = longer survival
How it was run: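 Tumor was transplanted into mice, which were then dosed with test compound or vehicle alone. Survival was recorded for each group, and the treated figure was expressed relative to the control figure.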

[1] = dose: 10.0 mg/kg/injection, schedule: Q01DX Z (ip), vehicle: other
[2] = dose: 30.0 mg/kg/injection, schedule: Q01DX Z (ip), vehicle: other
[3] = dose: 100.0 mg/kg/injection, schedule: Q01DX001 (ip), vehicle: saline
[4] = dose: 200.0 mg/kg/injection, schedule: Q01DX001 (ip), vehicle: saline
[5] = dose: 400.0 mg/kg/injection, schedule: Q01DX001 (ip), vehicle: saline
[6] = dose: 12.5 mg/kg/injection, schedule: Q04DX003 (ip), vehicle: Klucel (hydroxypropylcellulose) (HPC)
[7] = dose: 25.0 mg/kg/injection, schedule: Q04DX003 (ip), vehicle: Klucel (hydroxypropylcellulose) (HPC)
[8] = dose: 50.0 mg/kg/injection, schedule: Q04DX003 (ip), vehicle: Klucel (hydroxypropylcellulose) (HPC)
[9] = dose: 100.0 mg/kg/injection, schedule: Q04DX003 (ip), vehicle: Klucel (hydroxypropylcellulose) (HPC)
[10] = dose: 200.0 mg/kg/injection, schedule: Q04DX003 (ip), vehicle: Klucel (hydroxypropylcellulose) (HPC)
[11] = dose: 400.0 mg/kg/injection, schedule: Q04DX003 (ip), vehicle: Klucel (hydroxypropylcellulose) (HPC)
[12] = dose: 100.0 mg/kg/injection, schedule: Q04DX003 (ip), vehicle: saline
[13] = dose: 200.0 mg/kg/injection, schedule: Q04DX003 (ip), vehicle: saline
[14] = dose: 100.0 mg/kg/injection, schedule: Q01DX009 (ip), vehicle: Klucel (hydroxypropylcellulose) (HPC)
[15] = dose: 200.0 mg/kg/injection, schedule: Q01DX009 (ip), vehicle: Klucel (hydroxypropylcellulose) (HPC)
[16] = dose: 100.0 mg/kg/injection, schedule: Q01DX009 (ip), vehicle: saline with Tween-80
[17] = dose: 200.0 mg/kg/injection, schedule: Q01DX009 (ip), vehicle: saline with Tween-80
[18] = dose: 400.0 mg/kg/injection, schedule: Q01DX009 (ip), vehicle: saline with Tween-80
[19] = dose: 100.0 mg/kg/injection, schedule: Q04DX003 (ip), vehicle: saline with Tween-80
[20] = dose: 200.0 mg/kg/injection, schedule: Q04DX003 (ip), vehicle: saline with Tween-80
[21] = dose: 400.0 mg/kg/injection, schedule: Q04DX003 (ip), vehicle: saline with Tween-80
[22] = dose: 100.0 mg/kg/injection, schedule: Q01DX001 (ip), vehicle: saline with Tween-80
[23] = dose: 200.0 mg/kg/injection, schedule: Q01DX001 (ip), vehicle: saline with Tween-80
[24] = dose: 100.0 mg/kg/injection, schedule: Q04DX002 (ip), vehicle: Klucel (hydroxypropylcellulose) (HPC)
[25] = dose: 200.0 mg/kg/injection, schedule: Q04DX002 (ip), vehicle: Klucel (hydroxypropylcellulose) (HPC)
[26] = dose: 400.0 mg/kg/injection, schedule: Q04DX002 (ip), vehicle: Klucel (hydroxypropylcellulose) (HPC)

Measured: T/C

CCOC(=O)c1ccc(N=NNc2ccc(C(=O)OCC)cc2)cc1
inactive: [1] 95 % of control | [2] 87 % of control

C/C=C1/CN(C)C2Cc3c([nH]c4ccccc34)C(c3cc4[nH]c5c(c4cc3OC)CCN3CC4CC(C(C)O)C3C5(C(=O)OC)C4)CC1C2C(=O)OC (configuration not stated)
inactive: [1] 97 % of control | dose: 20.0 mg/kg/injection, schedule: Q01DX Z (ip), vehicle: other 93 % of control | [2] 90 % of control | dose: 30.0 mg/kg/injection, schedule: Q02DX Z (ip), vehicle: other 104 % of control | dose: 40.0 mg/kg/injection, schedule: Q01DX Z (ip), vehicle: other 95 % of control | dose: 40.0 mg/kg/injection, schedule: Q01DX Z (ip), vehicle: water 90 % of control | dose: 40.0 mg/kg/injection, schedule: Q02DX Z (ip), vehicle: other 103 % of control | dose: 60.0 mg/kg/injection, schedule: Q02DX Z (ip), vehicle: other 102 % of control | dose: 80.0 mg/kg/injection, schedule: Q01DX Z (ip), vehicle: water 94 % of control | dose: 80.0 mg/kg/injection, schedule: Q02DX Z (ip), vehicle: other 95 % of control

CNCCOCc1ccccc1
inactive: [3] 96 % of control | [4] 91 % of control

COc1ccc(CN2CCCN(Cc3ccc(OC)cc3OC)C2c2ccncc2)c(OC)c1
inactive: dose: 50.0 mg/kg/injection, schedule: Q01DX001 (ip), vehicle: saline 94 % of control | [3] 97 % of control | [4] 105 % of control | [5] 103 % of control

COC(=O)C1CC(=O)c2c(O)ccc(O)c2C1 (configuration not stated)
inactive: [6] 96 % of control | [7] 104 % of control | [8] 98 % of control | dose: 100.0 mg/kg/injection, schedule: Q01DX001 (ip), vehicle: Klucel (hydroxypropylcellulose) (HPC) 92 % of control | [9] 100 % of control | dose: 200.0 mg/kg/injection, schedule: Q01DX001 (ip), vehicle: Klucel (hydroxypropylcellulose) (HPC) 92 % of control | [10] 101 % of control | dose: 400.0 mg/kg/injection, schedule: Q01DX001 (ip), vehicle: Klucel (hydroxypropylcellulose) (HPC) 90 % of control | [11] 106 % of control

COC(=O)c1cc([N+](=O)[O-])cc([N+](=O)[O-])c1Br
inactive: dose: 3.0 mg/kg/injection, schedule: Q01DX009 (ip), vehicle: saline with Tween-80 100 % of control | dose: 6.0 mg/kg/injection, schedule: Q01DX009 (ip), vehicle: saline with Tween-80 98 % of control | dose: 12.0 mg/kg/injection, schedule: Q01DX009 (ip), vehicle: saline with Tween-80 98 % of control | dose: 12.5 mg/kg/injection, schedule: Q01DX009 (ip), vehicle: Klucel (hydroxypropylcellulose) (HPC) 96 % of control | [6] 100 % of control | dose: 25.0 mg/kg/injection, schedule: Q01DX009 (ip), vehicle: Klucel (hydroxypropylcellulose) (HPC) 89 % of control | [7] 94 % of control | [8] 94 % of control

CCN(CC)CCNC(Cc1ccccc1)c1cccc(OC)c1 (configuration not stated)
inactive: dose: 100.0 mg/kg/injection, schedule: Q01DX001 (ip), vehicle: carboxymethylcellulose (CMC) 96 % of control

CCC(Cl)COP(=O)(OCC(Cl)CC)OC(C(C)C)P(=O)(OCC(Cl)CC)OCC(Cl)CC (configuration not stated)
inactive: [9] 95 % of control | [10] 93 % of control | [11] 90 % of control

COn1c(CC(=O)C(=O)O)cccc1=O
inactive: [12] 102 % of control | [13] 97 % of control | dose: 400.0 mg/kg/injection, schedule: Q04DX003 (ip), vehicle: saline 94 % of control

CCN(CC)CCNC(=O)c1c2c(nc3ccccc13)CCCC2
inactive: [3] 103 % of control | [4] 102 % of control | [5] 98 % of control

C(=N\C(/N=C/c1ccco1)c1ccco1)/c1ccco1
inactive: [14] 94 % of control | [9] 96 % of control | [15] 105 % of control | [10] 98 % of control | dose: 400.0 mg/kg/injection, schedule: Q01DX009 (ip), vehicle: Klucel (hydroxypropylcellulose) (HPC) 97 % of control | [11] 100 % of control

c1ccc(N2CCSCC2)cc1
inactive: dose: 12.0 mg/kg/injection, schedule: Q01DX Z (ip), vehicle: methylcellulose (MC) 108 % of control | dose: 18.0 mg/kg/injection, schedule: Q01DX Z (ip), vehicle: methylcellulose (MC) 110 % of control | dose: 27.0 mg/kg/injection, schedule: Q01DX Z (ip), vehicle: methylcellulose (MC) 103 % of control | dose: 40.5 mg/kg/injection, schedule: Q01DX Z (ip), vehicle: methylcellulose (MC) 92 % of control

CCC1(O)C2CCCC1CCC2 (configuration not stated)
inactive: [16] 97 % of control | [9] 97 % of control | [17] 94 % of control | [10] 92 % of control | [18] 97 % of control | [11] 97 % of control

COc1ccc(OC(=O)Nc2ccc(C)cc2[N+](=O)[O-])cc1
inactive: [19] 102 % of control | [20] 98 % of control | [21] 93 % of control

Oc1ccccc1C1SCSCS1
inactive: [9] 97 % of control | [10] 98 % of control | [11] 103 % of control

Nc1nc(SCc2ccccc2)c2ncnnc2n1
inactive: [22] 97 % of control | [23] 103 % of control | dose: 400.0 mg/kg/injection, schedule: Q01DX001 (ip), vehicle: saline with Tween-80 98 % of control

CCCC(CN)(CCN1CCOCC1)c1cccc2ccccc12 (configuration not stated)
inactive: [12] 98 % of control | [13] 95 % of control

C[C@@]1(C(=O)O)CC2C=CC1C2 (some centres not stated)
inactive: [24] 96 % of control | [25] 96 % of control | [26] 93 % of control

O=C1N(c2cc([N+](=O)[O-])ccc2F)C(=O)C(F)(F)C1(F)F
inactive: [22] 102 % of control | [23] 97 % of control

c1ccc(CN2CCN(CC3CC3)CC2)cc1
inactive: [6] 103 % of control | [7] 98 % of control | [8] 110 % of control

COc1ccc(C2ON2C2CCCCC2)cc1OC (configuration not stated)
inactive: [4] 106 % of control | [5] 100 % of control

CCCCC(C)C(=O)Nc1cccc(O)c1 (configuration not stated)
inactive: [16] 92 % of control | [17] 92 % of control | [18] 90 % of control

CC/C(=C(\CC)c1ccc(OCCOS(=O)(=O)c2ccc(C)cc2)cc1)c1ccc(OCCOS(=O)(=O)c2ccc(C)cc2)cc1
inactive: dose: 6.25 mg/kg/injection, schedule: Q04DX002 (ip), vehicle: saline 101 % of control | dose: 12.5 mg/kg/injection, schedule: Q04DX002 (ip), vehicle: saline 105 % of control | dose: 25.0 mg/kg/injection, schedule: Q04DX002 (ip), vehicle: saline 97 % of control

O=P(NN1CCCCC1)(NN1CCCCC1)c1ccccc1
inactive: dose: 100.0 mg/kg/injection, schedule: Q01DX009 (ip), vehicle: carboxymethylcellulose (CMC) 93 % of control | dose: 200.0 mg/kg/injection, schedule: Q01DX009 (ip), vehicle: carboxymethylcellulose (CMC) 93 % of control

Cc1ccc(C(=O)OCc2ccccc2CN(C)C)cc1
inactive: [24] 94 % of control | [25] 94 % of control | [26] 102 % of control

OCC1OC(c2[nH]nc3c(Cl)ncnc23)C(O)C1O (configuration not stated)
inactive: dose: 100.0 mg/kg/injection, schedule: Q01DX005 (ip), vehicle: saline 108 % of control | dose: 200.0 mg/kg/injection, schedule: Q01DX005 (ip), vehicle: saline 120 % of control

C/C(=C/C(=O)O)c1cc2ccccc2n1C
inactive: [19] 100 % of control | [20] 92 % of control | [21] 96 % of control

COc1ccc(NC(=O)Oc2ccc(Cl)cc2Cl)c(OC)c1
inactive: [14] 114 % of control | [15] 101 % of control

CC1(C)C=Cc2ccccc21
inactive: [19] 104 % of control | [20] 96 % of control
